Laboratory results published in the supplement of paper PMC10307832.

Tests used:
Assay in all cases: relative viability (nuclei count vs DMSO), 5 days (fraction); higher = more cells survive
[1] = compound: O=c1[nH]cc(F)c(=O)[nH]1 [5-Fluorouracil] + NC(=O)Nc1cc(-c2cccc(F)c2)sc1C(=O)N[C@H]1CCCNC1 [AZD7762] (partner 0.2 µM)
In short: (§1)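 Relative viability is defined as nuclei in treated wells over nuclei in vehicle wells. Duplicate plates were run and medians reported. Lung cancer cell lines in 1536-well plates were dosed by pin tool one day after seeding, with one drug or with a fixed anchor-drug dose plus five library-drug doses (not always all listed) in √10 steps, and nuclei were counted after 5 days.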

[2] = compound: CN[C@@H]1C[C@H]2O[C@@](C)([C@@H]1OC)n1c3ccccc3c3c4c(c5c6ccccc6n2c5c31)C(=O)NC4 [Staurosporine] + CCNC(=O)c1noc(-c2cc(C(C)C)c(O)cc2O)c1-c1ccc(CN2CCOCC2)cc1 [Luminespib] (partner 0.01 µM)
In short: as §1

[3] = compound: CC1=C(CC(=O)O)c2cc(F)ccc2/C1=C\c1ccc([S+](C)[O-])cc1 [Sulindac] + Cc1cc(Nc2cc(N3CCN(C)CC3)nc(Sc3ccc(NC(=O)C4CC4)cc3)n2)n[nH]1 [Tozasertib] (partner 0.1 µM)
In short: as §1

[4] = compound: CN[C@@H]1C[C@H]2O[C@@](C)([C@@H]1OC)n1c3ccccc3c3c4c(c5c6ccccc6n2c5c31)C(=O)NC4 [Staurosporine] + Cc1cc(Nc2cc(N3CCN(C)CC3)nc(Sc3ccc(NC(=O)C4CC4)cc3)n2)n[nH]1 [Tozasertib] (partner 0.1 µM)
In short: as §1

Cell Line | relative viability ([1]; first compound 0.02 µM) | relative viability ([1]; first compound 0.2 µM) | relative viability ([1]; first compound 0.6325 µM) | relative viability ([1]; first compound 2 µM) | relative viability ([2]; first compound 0.005 µM) | relative viability ([2]; first compound 0.01581 µM) | relative viability ([2]; first compound 0.05 µM) | relative viability ([2]; first compound 0.1581 µM) | relative viability ([2]; first compound 0.5 µM) | relative viability ([3]; first compound 0.08 µM) | relative viability ([3]; first compound 0.253 µM) | relative viability ([3]; first compound 2.53 µM) | relative viability ([3]; first compound 8 µM) | relative viability ([4]; first compound 0.005 µM) | relative viability ([4]; first compound 0.01581 µM) | relative viability ([4]; first compound 0.05 µM) | relative viability ([4]; first compound 0.1581 µM) | relative viability ([4]; first compound 0.5 µM) | relative viability ([3]; first compound 0.8 µM)
NCI-H1734 | 0.539 | 0.613 | 0.54 | 0.314 | 0.112 | 0.0831 | 0.511 | 0.0656 | 0.0444 | 0.221 | 0.25 | 0.295 | 0.286 | 0.314 | 0.206 | 0.191 | 0.132 | 0.0956 | 
PC-14 | 0.361 | 0.431 | 0.389 | 0.278 | 0.11 | 0.101 | 0.103 | 0.132 | 0.118 | 0.605 | 0.659 | 0.575 | 0.685 | 0.514 | 0.218 | 0.0637 | 0.0512 | 0.0343 | 0.538
NCI-H1915 | 0.409 | 0.683 | 0.643 | 0.577 | 0.824 | 0.247 | 0.207 | 0.105 | 0.0895 | 0.505 | 0.451 | 0.423 | 0.416 | 0.45 | 0.229 | 0.217 | 0.108 | 0.154 | 
ChaGo-K-1 | 0.883 | 0.917 | 0.609 | 0.383 | 0.7 | 0.344 | 0.374 | 0.185 | 0.176 | 0.228 | 0.197 | 0.217 | 0.241 | 0.202 | 0.181 | 0.162 | 0.145 | 0.157 | 0.24
HOP-62 | 0.636 | 1.06 | 0.522 | 0.473 | 0.949 | 0.426 | 0.189 | 0.134 | 0.109 | 0.409 | 0.41 | 0.386 | 0.426 | 0.349 | 0.237 | 0.114 | 0.128 | 0.103 | 
NCI-H1975 |  | 0.596 | 0.32 | 0.28 | 0.159 | 0.155 | 0.131 | 0.169 | 0.146 | 0.888 | 0.825 | 0.722 | 1.15 | 0.363 | 0.205 | 0.128 | 0.0804 | 0.0788 | 0.927
BEN | 0.791 | 0.804 | 0.606 | 0.679 | 0.397 | 0.256 | 0.383 | 0.152 | 0.129 | 0.46 | 0.449 | 0.462 | 0.566 | 0.587 | 0.743 | 0.484 | 0.434 | 0.325 | 0.519
NCI-H1437 | 0.34 | 0.199 | 0.17 | 0.116 | 1.05 |  | 0.774 | 0.367 | 0.26 | 0.438 | 0.434 | 0.397 | 0.429 | 0.402 |  | 0.381 | 0.325 | 0.199 | 0.32
EMC-BAC-2 | 1.14 | 1.22 | 1.11 | 1.01 | 0.844 | 0.33 | 0.24 | 0.216 | 0.211 | 0.269 | 0.298 | 0.278 | 0.315 | 0.181 | 0.138 | 0.19 | 0.192 | 0.181 | 0.287
LXF-289 | 1.1 | 0.495 | 0.342 | 0.313 | 0.584 | 0.13 | 0.246 | 0.0904 | 0.0899 | 0.176 | 0.167 | 0.176 | 0.205 | 0.0996 | 0.072 | 0.0495 | 0.0532 | 0.0507 | 0.195
LOU-NH91 | 0.754 | 0.725 | 0.44 | 0.313 | 0.355 | 0.279 | 0.209 | 0.289 | 0.212 | 0.634 | 0.662 | 0.636 | 0.744 | 0.727 | 0.483 | 0.375 | 0.302 | 0.191 | 0.636
NCI-H2347 | 0.63 | 0.45 | 0.339 | 0.343 | 0.4 | 0.262 | 0.216 | 0.228 | 0.263 | 0.522 | 0.615 | 0.528 | 0.598 | 0.514 | 0.357 | 0.196 | 0.268 | 0.219 | 
HCC-827 | 0.164 | 0.178 | 0.166 | 0.147 | 0.997 | 0.532 | 0.13 | 0.139 | 0.121 | 0.485 | 0.432 | 0.418 | 0.466 | 0.442 | 0.313 | 0.358 | 0.329 | 0.263 | 0.435
NCI-H727 | 0.697 | 0.718 | 0.527 | 0.605 | 0.291 | 0.373 | 0.252 | 0.223 | 0.183 | 0.609 | 1.78 | 0.451 | 0.795 | 0.562 | 0.429 | 0.303 | 0.318 | 0.297 | 
CAL-12T | 0.685 | 0.588 | 0.421 | 0.421 | 0.0969 | 0.0675 | 0.0596 | 0.109 | 0.109 | 0.253 | 0.282 | 0.301 | 0.365 | 0.146 | 0.117 | 0.101 | 0.132 | 0.0975 | 0.322
PC-3 [JPC-3] | 0.815 | 0.855 | 0.908 | 0.816 | 0.628 | 0.474 | 0.319 | 0.323 | 0.272 | 0.982 | 0.984 | 0.868 | 0.878 | 0.919 | 0.598 | 0.512 | 0.321 | 0.344 | 0.828
NCI-H23 | 0.142 | 0.208 | 0.163 | 0.172 | 0.215 | 0.204 | 0.181 | 0.163 | 0.156 | 0.292 |  | 0.354 | 0.535 | 0.324 |  | 0.198 | 0.157 | 0.196 | 0.323
